Columns and labels:
Format in all cases: in vivo
[1] = tested on: woolly cupgrass (Eriochloa villosa); assay: Test B pre-/postemergence plant response
In short: (§1)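 Compound in solvent + surfactant applied pre-em (loam/sand) or post-em (plants 2–18 cm, peat medium); greenhouse hold 13–15 days; visual 0–100 control score.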

[2] = tested on: goosegrass (Eleusine indica); assay: Test B pre-/postemergence plant response
In short: as §1

[3] = tested on: wheat (Triticum aestivum); assay: Test B pre-/postemergence plant response
In short: as §1

[4] = tested on: morningglory (Ipomoea coccinea); assay: Test B pre-/postemergence plant response
In short: as §1

[5] = tested on: johnsongrass (Sorghum halepense); assay: Test B pre-/postemergence plant response
In short: as §1

[6] = tested on: giant foxtail (Setaria faberii); assay: Test B pre-/postemergence plant response
In short: as §1

[7] = tested on: barnyardgrass (Echinochloa crus-galli); assay: Test B flooded paddy test; settings: for Plant response rating, Flood, Barnyardgrass: 250 g ai/ha, flooded paddy test, visual rating on 0 to 100 scale (0 no effect, 100 complete control) after 13 to 15 days; for Plant response rating, Barnyardgrass: Flood (flooded paddy test), 62 g ai/ha, 13 to 15 days
In short: (§2)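 Post-flood paddy application: compounds are introduced into water 3 cm deep over the soil, reaching plants at the 2-leaf stage. The water level is maintained, and after 13–15 days under greenhouse conditions, response is judged by eye relative to controls, where 100 means complete control.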

[8] = tested on: rice (Oryza sativa); assay: Test B flooded paddy test; settings: for Plant response rating, Flood, Rice: 250 g ai/ha, flooded paddy test, visual rating on 0 to 100 scale (0 no effect, 100 complete control) after 13 to 15 days; for Plant response rating, Rice: Flood (flooded paddy test), 62 g ai/ha, 13 to 15 days
In short: as §2

[9] = tested on: ducksalad (Heteranthera limosa); assay: Test B flooded paddy test; settings: for Plant response rating, Flood, Ducksalad: 250 g ai/ha, flooded paddy test, visual rating on 0 to 100 scale (0 no effect, 100 complete control) after 13 to 15 days; for Plant response rating, Ducksalad: Flood (flooded paddy test), 62 g ai/ha, 13 to 15 days
In short: as §2

[10] = tested on: umbrella sedge (Cyperus difformis); assay: Test B flooded paddy test; settings: for Plant response rating, Flood, Sedge, Umbrella: 250 g ai/ha, flooded paddy test, visual rating on 0 to 100 scale (0 no effect, 100 complete control) after 13 to 15 days; for Plant response rating, Sedge, Umbrella: Flood (flooded paddy test), 62 g ai/ha, 13 to 15 days
In short: as §2

[11] = tested on: pigweed (Amaranthus retroflexus); assay: Test A pre-/postemergence plant response
In short: (§3)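 Plants grown from seed in a loam soil and sand mix received test compounds both as a preemergence soil spray and, at the same time, as a postemergence spray at the one- to two-leaf stage. Injury was judged visually against untreated controls roughly ten days later, 0 meaning no effect and 100 complete control.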

[12] = tested on: morningglory (Ipomoea spp.); assay: Test A pre-/postemergence plant response
In short: as §3

[13] = 250 g ai/ha, Preemergence, 0 to 100 scale
[14] = Postemergence, 31 g ai/ha, scale 0 to 100 (0 no effect, 100 complete control)
[15] = Postemergence, 62 g ai/ha, scale 0 (no effect) to 100 (complete control), 13 to 15 days
[16] = Postemergence, 125 g ai/ha, visual rating after 13 to 15 days, scale 0 (no effect) to 100 (complete control)
[17] = Postemergence, 250 g ai/ha, scale 0 to 100
[18] = Preemergence, 31 g ai/ha, scale 0 to 100 (0 no effect, 100 complete control)
[19] = Preemergence, 62 g ai/ha, scale 0 to 100, 0 no effect, 100 complete control
[20] = Preemergence, 125 g ai/ha, 0 to 100 scale
[21] = scale 0 to 100, 0 is no effect, 100 is complete control
[22] = Postemergence, 125 g ai/ha, visual injury, 0 to 100 scale (0 no effect, 100 complete control), approx. ten days
[23] = Postemergence, 500 g ai/ha, 0 to 100 scale, 0 = no effect, 100 = complete control, approx. ten days
[24] = Preemergence, 125 g ai/ha, 0 to 100 scale, 0 = no effect, 100 = complete control
[25] = Preemergence, 500 g ai/ha, visual injury, 0 to 100 scale (0 no effect, 100 complete control), approx. ten days
[26] = scale of 0 to 100 where 0 is no effect and 100 is complete control

## Cc1ccc(-n2c(-c3cccc(Cl)c3)ncc(C(=O)C3=C(O)CCCC3=O)c2=O)cc1 [Compound 39]
[1]; [13]
  Plant response rating, Cupgrass, Woolly: 10
[1]; [14]
  Plant response rating, Cupgrass, Woolly: 65
[1]; [15]
  Plant response rating, Cupgrass, Woolly: 85
[1]; [16]
  Plant response rating, Cupgrass, Woolly: 85
[1]; [17]
  Cupgrass, Woolly plant response rating: 90
[1]; [18]
  Plant response rating, Cupgrass, Woolly: 0
[1]; [19]
  Plant response rating, Cupgrass, Woolly: 0
[1]; [20]
  Cupgrass, Woolly plant response rating: 0
[2]; [13]
  Plant response rating, Goosegrass: 100
[2]; [15]
  Plant response rating, Goosegrass: 55
[2]; [16]
  Plant response rating, Goosegrass: 65
[2]; [17]
  Goosegrass plant response rating: 75
[2]; [18]
  Plant response rating, Goosegrass: 85
[2]; [20]
  Goosegrass plant response rating: 100
[3]; [13]
  Plant response rating, Wheat: 0
[3]; [15]
  Plant response rating, Wheat: 5
[3]; [16]
  Plant response rating, Wheat: 5
[3]; [18]
  Plant response rating, Wheat: 0
[3]; [20]
  Wheat plant response rating: 0
[4]; [13]
  Plant response rating, Morningglory: 100
[4]; [15]
  Plant response rating, Morningglory: 75
[4]; [16]
  Plant response rating, Morningglory: 75
[4]; [18]
  Plant response rating, Morningglory: 0
[4]; [19]
  Plant response rating, Morningglory: 0
[4]; [20]
  Morningglory plant response rating: 15
[5]; [13]
  Plant response rating, Johnsongrass: 75
[5]; [15]
  Plant response rating, Johnsongrass: 65
[5]; [16]
  Plant response rating, Johnsongrass: 90
[5]; [17]
  Johnsongrass plant response rating: 98
[5]; [18]
  Plant response rating, Johnsongrass: 0
[5]; [19]
  Plant response rating, Johnsongrass: 60
[5]; [20]
  Johnsongrass plant response rating: 65
[6]; [13]
  Plant response rating, Foxtail, Giant: 75
[6]; [14]
  Plant response rating, Foxtail, Giant: 75
[6]; [15]
  Plant response rating, Foxtail, Giant: 85
[6]; [16]
  Plant response rating, Foxtail, Giant: 95
[6]; [17]
  Foxtail, Giant plant response rating: 95
[6]; [18]
  Plant response rating, Foxtail, Giant: 0
[6]; [19]
  Plant response rating, Foxtail, Giant: 45
[6]; [20]
  Foxtail, Giant plant response rating: 70
[7]
  Plant response rating, Flood, Barnyardgrass: 30
[7]; [21]
  Plant response rating, Barnyardgrass: 0
[8]
  Plant response rating, Flood, Rice: 15
[8]; [21]
  Plant response rating, Rice: 0
[9]
  Plant response rating, Flood, Ducksalad: 90
[9]; [21]
  Plant response rating, Ducksalad: 80
[10]
  Plant response rating, Flood, Sedge, Umbrella: 90
[10]; [21]
  Plant response rating, Sedge, Umbrella: 90
[11]; [22]
  Pigweed plant response rating: 100
[11]; [23]
  Plant response rating, Pigweed: 100
[11]; [24]
  Plant response rating, Pigweed: 60
[11]; [25]
  Plant response rating, Pigweed: 90
[12]; [22]
  Morningglory plant response rating: 80
[12]; [23]
  Plant response rating, Morningglory: 90
[12]; [24]
  Plant response rating, Morningglory: 40
[12]; [25]
  Plant response rating, Morningglory: 60

## Cc1cccc(-n2c(-c3cccc(Cl)c3)ncc(C(=O)C3=C(O)CCCC3=O)c2=O)c1 [Compound 45]
[1]; [13]
  Plant response rating, Cupgrass, Woolly: 75
[1]; [14]
  Plant response rating, Cupgrass, Woolly: 70
[1]; [15]
  Plant response rating, Cupgrass, Woolly: 75
[1]; [16]
  Plant response rating, Cupgrass, Woolly: 75
[1]; [17]
  Cupgrass, Woolly plant response rating: 80
[1]; [18]
  Plant response rating, Cupgrass, Woolly: 45
[1]; [19]
  Plant response rating, Cupgrass, Woolly: 45
[1]; [20]
  Cupgrass, Woolly plant response rating: 60
[2]; [13]
  Plant response rating, Goosegrass: 100
[2]; [15]
  Plant response rating, Goosegrass: 75
[2]; [16]
  Plant response rating, Goosegrass: 80
[2]; [17]
  Goosegrass plant response rating: 90
[2]; [18]
  Plant response rating, Goosegrass: 80
[2]; [20]
  Goosegrass plant response rating: 100
[3]; [13]
  Plant response rating, Wheat: 0
[3]; [15]
  Plant response rating, Wheat: 15
[3]; [16]
  Plant response rating, Wheat: 15
[3]; [18]
  Plant response rating, Wheat: 0
[3]; [20]
  Wheat plant response rating: 0
[4]; [13]
  Plant response rating, Morningglory: 0
[4]; [15]
  Plant response rating, Morningglory: 75
[4]; [16]
  Plant response rating, Morningglory: 80
[4]; [18]
  Plant response rating, Morningglory: 0
[5]; [13]
  Plant response rating, Johnsongrass: 85
[5]; [15]
  Plant response rating, Johnsongrass: 90
[5]; [16]
  Plant response rating, Johnsongrass: 98
[5]; [17]
  Johnsongrass plant response rating: 100
[5]; [18]
  Plant response rating, Johnsongrass: 0
[5]; [19]
  Plant response rating, Johnsongrass: 45
[5]; [20]
  Johnsongrass plant response rating: 75
[6]; [13]
  Plant response rating, Foxtail, Giant: 75
[6]; [14]
  Plant response rating, Foxtail, Giant: 75
[6]; [15]
  Plant response rating, Foxtail, Giant: 90
[6]; [16]
  Plant response rating, Foxtail, Giant: 95
[6]; [17]
  Foxtail, Giant plant response rating: 98
[6]; [18]
  Plant response rating, Foxtail, Giant: 0
[6]; [19]
  Plant response rating, Foxtail, Giant: 0
[6]; [20]
  Foxtail, Giant plant response rating: 45
[7]
  Plant response rating, Flood, Barnyardgrass: 30
[7]; [26]
  Plant response rating, Barnyardgrass: 0
[8]
  Plant response rating, Flood, Rice: 20
[8]; [26]
  Plant response rating, Rice: 15
[9]
  Plant response rating, Flood, Ducksalad: 90
[9]; [26]
  Plant response rating, Ducksalad: 20
[10]
  Plant response rating, Flood, Sedge, Umbrella: 85
[10]; [26]
  Plant response rating, Sedge, Umbrella: 70
[11]; [22]
  Pigweed plant response rating: 90
[11]; [23]
  Plant response rating, Pigweed: 100
[11]; [24]
  Plant response rating, Pigweed: 80
[11]; [25]
  Plant response rating, Pigweed: 100
[12]; [22]
  Morningglory plant response rating: 80
[12]; [23]
  Plant response rating, Morningglory: 100
[12]; [24]
  Plant response rating, Morningglory: 20
[12]; [25]
  Plant response rating, Morningglory: 90

Source: patent US8952024B2, “Herbicidal pyrimidone derivatives” (E I du Pont de Nemours and Company, priority 2009, dated 2015)
